The source of these data is patent publication US12215101B2, “Pro drugs of PDE10 compounds” (Merck Sharp & Dohme LLC, priority 2021, dated 2025).

Converted amounts (≈) assume the structure as drawn.

A short description of data set [1]: Aqueous solubility (slurry in pH 7 buffer, UPLC). In kind it is physicochemical. The following applies: pH 7.0 phosphate buffer, amorphous material; for solubility: aqueous buffer, thermodynamic from solid, read-out: Aqu. Solubility. On the procedure: Aqueous solubility of the compounds was measured by suspending, sonicating (30 minutes), and slurrying (2 hours, 1000 rpm) excess solid (typically 5-10 mg) in phosphate buffered saline at pH 7, or equivalent pH 7 buffer. The suspension was then sonicated again for 30 minutes and stirred again at 1000 rpm for at least 6-24 hours. Approximately 400 μL of sample was removed and placed into spin filters. Each sample was spun at 14K rpm for 10 minutes using a 0.45 μm PVDF spin filter. A portion of the filtrate was removed and diluted with 1:1 ACN:H2O. The resultant samples were analyzed using UPLC analysis. Retains of the solids were checked by XRPD to determine if the material was crystalline or amorphous. Solubility of Compound A was measured at 140 μg/mL at pH 7.4 in PBS buffer solution.

The nature of data set [2]: Plasma stability in frozen human plasma. In kind it is in vitro ADME. Particulars: 37° C., 10% CO2, read-out: T1/2 Human Plasma (converted). On the procedure: (§1) Plasma stability of the compounds 1-19 (1 μM) was evaluated in frozen monkey and human plasma at 37° C. in a 10% CO2 environment. The stability of the analyte was assessed by determining the percentage of drug loss over the course of 0, 0.25, 0.5, 1, and 3 hr. In addition, the appearance of Compound A was determined for the same time course. Percent of drug loss as based on ratio with internal standard. Analyte concentrations were measured by LC/MS/MS. Linear regression was performed with log transformed percent of average TO values and linear time values. The elimination rate constant (ke) was calculated from the slope of this regression line and the half-life (T1/2) calculated based on the elimination rate constant.

Data set [3] can be described thus: Plasma stability in frozen monkey plasma. In kind it is in vitro ADME. Particulars: 37° C., 10% CO2, read-out: T1/2 Monkey Plasma (converted). On the procedure: as §1

What is called solubility is the concentration that dissolves in the medium under given conditions. Consider `Cc1ccc([C@H]2C[C@@H]2COc2cc(N(Cc3nnc(C)s3)C(=O)OCc3oc(=O)oc3C)nc(C)n2)nc1` [Compound 1, (5-Methyl-2-oxo-1,3-dioxol-4-yl)methyl ((5-methyl-1,3,4-thiadiazol-2-yl)methyl)(2-methyl-6-(((1S,2S)-2-(5-methylpyridin-2-yl)cyclopropyl)methoxy)pyrimidin-4-yl)carbamate], for which the solubility in data set [1] turned out to be 2.3 µg/mL (≈ 4.27 µM). Moreover, the half-life at 1 μM in data set [2] was 3.6 min; in data set [3] it was 6.6 min.
On to `Cc1ccc([C@H]2C[C@@H]2COc2cc(N(Cc3nnc(C)s3)Sc3ccccc3)nc(C)n2)nc1` [Compound 2, N-((5-Methyl-1,3,4-thiadiazol-2-yl)methyl)-N-(2-methyl-6-(((1S,2S)-2-(5-methylpyridin-2-yl)cyclopropyl)methoxy)pyrimidin-4-yl)-S-phenylthiohydroxylamine], for which, in data set [1], the “Aqu. Solubility” value is reported as “BLQ”. For the same compound, the half-life at 1 μM is 17.4 min in data set [2] and 4.8 min in data set [3].
On to `Cc1ccc([C@H]2C[C@@H]2COc2cc(N(Cc3nnc(C)s3)C(=O)c3ccccc3)nc(C)n2)nc1` [Compound 3, N-((5-Methyl-1,3,4-thiadiazol-2-yl)methyl)-N-(2-methyl-6-(((1S,2S)-2-(5-methylpyridin-2-yl)cyclopropyl)methoxy)pyrimidin-4-yl)benzamide], for which the solubility in data set [1] is 19 µg/mL (≈ 39 µM). Also, the values for the half-life at 1 μM in data set [2] and in data set [3] were 182 min and 69 min, respectively.
Take `CCCCCOC(=O)N(Cc1nnc(C)s1)c1cc(OC[C@H]2C[C@@H]2c2ccc(C)cn2)nc(C)n1` [Compound 4, Pentyl ((5-methyl-1,3,4-thiadiazol-2-yl)methyl)(2-methyl-6-(((1S,2S)-2-(5-methylpyridin-2-yl)cyclopropyl)methoxy)pyrimidin-4-yl)carbamate]: the solubility in data set [1] came to 0.008 µg/mL (≈ 0.0161 µM). Further, the half-life at 1 μM in data set [2] was 412 min; in data set [3], 104 min.
Turning to `Cc1ccc([C@H]2C[C@@H]2COc2cc(N(Cc3nnc(C)s3)C(=O)OCOC(=O)c3ccccc3)nc(C)n2)nc1` [Compound 5, ((((5-Methyl-1,3,4-thiadiazol-2-yl)methyl)(2-methyl-6-(((1S,2S)-2-(5-methylpyridin-2-yl)cyclopropyl)methoxy)pyrimidin-4-yl)carbamoyl)oxy)methyl benzoate], the solubility in data set [1] is 0.02 µg/mL (≈ 0.0357 µM). The half-life at 1 μM in data set [2] was 104 min; in data set [3], 78.6 min.
`CCCCCC(=O)OCOC(=O)N(Cc1nnc(C)s1)c1cc(OC[C@H]2C[C@@H]2c2ccc(C)cn2)nc(C)n1` [Compound 6, ({(2-Methyl-6-{[(1S,2S)-2-(5-methylpyridin-2-yl)cyclopropyl]methoxylpyrimidin-4-yl)[(5-methyl-1,3,4-thiadiazol-2-yl)methyl]carbamoyl}oxy)methyl hexanoate]: in data set [1], the solubility stood at 0.02 µg/mL (≈ 0.0361 µM). The half-life at 1 μM in data set [2] was 21 min; in data set [3] it was 14.4 min.
In the same order, the values of `CCC(=O)OCOC(=O)N(Cc1nnc(C)s1)c1cc(OC[C@H]2C[C@@H]2c2ccc(C)cn2)nc(C)n1` [Compound 7, ({(2-Methvl-6-{[(1S,2S)-2-(5-methylpyridin-2-yl)cyclopropyl]methoxy}pyrimidin-4-yl)[(5-methyl-1,3,4-thiadiazol-2-yl)methyl|carbamoyl}oxy)methyl propanoate] are 15 µg/mL (≈ 29.3 µM), 4.8 min and 5.4 min.
On the same counts, the results for `Cc1ccc([C@H]2C[C@@H]2COc2cc(N(Cc3nnc(C)s3)C(=O)OCOC(=O)c3ccncc3)nc(C)n2)nc1` [Compound 8, ({(2-Methyl-6-{[(1S,2S)-2-(5-methylpyridin-2-yl)cyclopropyl]methoxy}pyrimidin-4-yl)[(5-methyl-1,3,4-thiadiazol-2-yl)methyl]carbamoyl}oxy)methyl pyridine-4-carboxylate] are 0.139 µg/mL (≈ 0.247 µM), 11.4 min and 9.6 min.
On to `Cc1ccc([C@H]2C[C@@H]2COc2cc(N(Cc3nnc(C)s3)C(=O)OCOC(=O)c3ccccn3)nc(C)n2)nc1` [Compound 9, ({(2-Methyl-6-{[(1S,2S)-2-(5-methylpyridin-2-yl)cyclopropyl]methoxy}pyrimidin-4-yl)[(5-methyl-1,3.4-thiadiazol-2-yl)methyl]carbamoyl}oxy)methyl pyridine-2-carboxylate], for which the solubility in data set [1] is 0.058 µg/mL (≈ 0.103 µM). Further, the half-life at 1 μM in data set [2] is 7.2 min; in data set [3] it was 6 min.
Consider `Cc1ccc([C@H]2C[C@@H]2COc2cc(N(Cc3nnc(C)s3)C(=O)OCOC(=O)c3cccnc3)nc(C)n2)nc1` [Compound 10, ({(2-Methyl-6-{[(1S,2S)-2-(5-methylpyridin-2-ylcyclopropyl]methoxy}pyrimidin-4-yl)|(5-methyl-1,3,4-thiadiadol-2-yl)methyl]carbamoyl}oxy)methyl pyridine-3-carboxylate], for which, in data set [1], the solubility was determined as 0.05 µg/mL (≈ 0.089 µM). The half-life at 1 μM was 55.8 min in data set [2] and 30.6 min in data set [3].
For `Cc1ccc([C@H]2C[C@@H]2COc2cc(N(Cc3nnc(C)s3)C(=O)OCOC(=O)c3ccc(F)cc3)nc(C)n2)nc1` [Compound 11, ({(2-Methyl-6-{[(1S,2S)-2-(5-methylpyridin-2-yl)cyclopropyl]methoxy}pyrimidin-4-yl)[(5-methyl-1,3,4-thiadiazol-2-yl)methyl]carbamoyl}oxy)methyl 4-fluorobenzoate], in data set [1], the solubility came out at 0.07 µg/mL (≈ 0.121 µM). For the same compound, the figures for the half-life at 1 μM in data set [2] and in data set [3] were 64.8 min and 43.2 min, respectively.
In the same order, the values of `Cc1ccc([C@H]2C[C@@H]2COc2cc(N(Cc3nnc(C)s3)C(=O)OCOC(=O)c3ccccc3F)nc(C)n2)nc1` [Compound 13, ({(2-Methyl-6-{[(1S,2S)-2-(5-methylpyridin-2-yl)cyclopropyl]methoxy}pyrimidin-4-yl)[(5-methyl-1,3,4-thiadiazol-2-yl)methyl]carbamoyl}oxy)methyl 2-fluorobenzoate] are 0.08 µg/mL (≈ 0.138 µM), 27 min and 16.8 min.
As for `COc1ccccc1C(=O)OCOC(=O)N(Cc1nnc(C)s1)c1cc(OC[C@H]2C[C@@H]2c2ccc(C)cn2)nc(C)n1` [Compound 14, ({(2-Methyl-6-{[(1S,2S)-2-(5-methylpyridin-2-yl)cyclopropyl]methoxy}pyrimidin-4-yl)[(5-methyl-1,3,4-thiadiazol-2-yl)methyl]carbamoyl}oxy)methyl 2-methoxybenzoate], in data set [1], the solubility amounted to 0.02 µg/mL (≈ 0.0339 µM). Besides, the half-life at 1 μM was 126 min in data set [2] and 54 min in data set [3].
As to `COc1cccc(C(=O)OCOC(=O)N(Cc2nnc(C)s2)c2cc(OC[C@H]3C[C@@H]3c3ccc(C)cn3)nc(C)n2)c1` [Compound 15, ({(2-Methyl-6-{[(1S,2S)-2-(5-methylpyridin-2-yl)cyclopropyl]methoxy}pyrimidin-4-yl)[(5-methyl-1,3,4-thiadiazol-2-yl)methyl]carbamoyl}oxy)methyl 3-methoxybenzoate], the solubility in data set [1] stood at 0.12 µg/mL (≈ 0.203 µM). For the same compound, the values for the half-life at 1 μM in data set [2] and in data set [3] were 198 min and 67.2 min, respectively.
In the case of `COc1ccc(C(=O)OCOC(=O)N(Cc2nnc(C)s2)c2cc(OC[C@H]3C[C@@H]3c3ccc(C)cn3)nc(C)n2)cc1` [Compound 16, ({(2-Methyl-6-{[(1S,2S)-2-(5-methylpyridin-2-yl)cyclopropyl]methoxy}pyrimidin-4-yl)[(5-methyl-1,3,4-thiadiazol-2-yl)methyl]carbamoyl}oxy)methyl 4-methoxybenzoate], in data set [1], the solubility was found to be 0.16 µg/mL (≈ 0.271 µM). Moreover, the half-life at 1 μM in data set [2] was 227 min; in data set [3], 100 min.
As for `Cc1ccc([C@H]2C[C@@H]2COc2cc(N(Cc3nnc(C)s3)C(=O)OCOC(=O)C(C)C)nc(C)n2)nc1` [Compound 17], the solubility in data set [1] was 0.16 µg/mL (≈ 0.304 µM). The half-life at 1 μM was 7.8 min in data set [2] and 7.2 min in data set [3].
Consider `Cc1ccc([C@H]2C[C@@H]2COc2cc(N(Cc3nnc(C)s3)C(=O)OCOC(=O)C3CCCCC3)nc(C)n2)nc1` [Compound 18, ({(2-Methyl-6-{[(1S,2S)-2-(5-methylpyridin-2-yl)cyclopropyl]methoxy}pyrimidin-4-yl)[(5-methyl-1,3,4-thiadiazol-2-yl)methyl]carbamoyl}oxy)methyl cyclohexanecarboxylate], for which the solubility in data set [1] turned out to be 0.07 µg/mL (≈ 0.124 µM). The half-life at 1 μM is 21 min in data set [2] and 16.8 min in data set [3].
Take `CCC(CC)C(=O)OCOC(=O)N(Cc1nnc(C)s1)c1cc(OC[C@H]2C[C@@H]2c2ccc(C)cn2)nc(C)n1` [Compound 19, ({(2-Methyl-6-{[(1S,2S)-2-(5-methylpyridin-2-yl)cyclopropyl]methoxy}pyrimidin-4-yl)[(5-methyl-1,3,4-thiadiazol-2-yl)methyl]carbamoyl}oxy)methyl 2-ethylbutanoate]: in data set [1], the solubility was determined as 0.03 µg/mL (≈ 0.0541 µM). Besides, the half-life at 1 μM in data set [2] is 148 min; in data set [3], 35.4 min.
